Results from patent publication US9144557B2, “Hematopoietic growth factor mimetic small molecule compounds and their uses” (Ligand Pharmaceuticals Inc., priority 2009, dated 2015).

The compounds below were run on UT7/EPO Cell line (assay: Cell Proliferation Assay (UT7/EPO, ViaLight Plus)). Details: proliferative effect; compounds at 10 uM; UT7/EPO cells starved of EPO overnight; 72 hours at 37° C.; ViaLight Plus kit.
Type: cell-based, human
Protocol: The primary testing for the examplfied compounds was performed in UT7/EPO Cell line. UT7/EPO is human leukemia cell line, obtained from Dr. Norio Komatsu (Blood, Vol 82 (2), pp 456-464, 1993). These cells express endogenous EPO receptor and are dependant upon EPO for growth and proliferation. Briefly, the cells were starved of EPO overnight and plated in 96 or 384 well plates. The compounds were added to the cells at 10 uM concentration. The plates were then incubated at 37° C. for 72 hours. The proliferative effect of the compounds was measured by a commercially available kit from Lonza (ViaLight Plus).

Compound | Activity (%)
CN(C)c1ccc(C(=O)Nc2ccc(C(=NOC(=O)Cc3ccccc3)c3ccc(NC(=O)c4ccc(N(C)C)cc4)cc3)cc2)cc1 [Compound 310, N,N′-((((2-phenylacetoxy)imino)methylene)bis(4,1-phenylene))bis(4-(dimethylamino)benzamide)] | 22
COCCNC(=O)CCCn1ccc2cc(C(=O)N/N=C/c3cccc(-n4cccn4)c3)ccc21 [Compound 160, (E)-4-(5-(2-(3-(1H-pyrazol-1-yl)benzylidene)hydrazinecarbonyl)-1H-indol-1-yl)-N-(2-methoxyethyl)butanamide] | 22
O=C(Nc1ccc2[nH]c(-c3ccc(N4CCOCC4)cc3)nc2c1)c1ccccc1O [Compound 427, N-(2-(4-Morpholinophenyl)-1H-benzimidazol-5-yl)-2-hydroxybenzamide] | 15
COc1cccc(/C=N/NC(=O)c2ccc(C(=O)NCCC(=O)NCCCCO)cc2)c1 [Compound 165, (E)-N-(3-((4-hydroxybutyl)amino)-3-oxopropyl)-4-(2-(3-methoxybenzylidene)hydrazinecarbonyl)benzamide] | 19
COc1cc(/C=N/NC(=O)c2ccc(C(=O)NCCC(=O)NCCO)cc2)ccc1O [Compound 146, (E)-4-(2-(4-hydroxy-3-methoxybenzylidene)hydrazinecarbonyl)-N-(3-((2-hydroxyethyl)amino)-3-oxopropyl)benzamide] | 19
COc1ccc(/C=N/NC(=O)c2ccc(N(C)C)cc2)cc1/C=N/NC(=O)c1ccc(N(C)C)cc1 [Compound 106, (N′,N′″E,N′,N′″E)-N′,N′″-((4-methoxy-1,3-phenylene)bis(methanylylidene))bis(4-(dimethylamino)benzohydrazide)] | 14
CN(C)c1ccc(C(=O)N/N=C/c2cc(/C=N/NC(=O)c3ccc(N(C)C)cc3)cc(OCc3ccccc3)c2)cc1 [Compound 107, (N′,N′″E,N′,N′″E)-N′,N′″-((5-(benzyloxy)-1,3-phenylene)bis(methanylylidene))bis(4-(dimethylamino)benzohydrazide)] | 17
O=C(Nc1ccc(Nc2ccc(NC(=O)c3cc[nH]c3)cc2)c(F)c1)c1ccc(N2CCC(O)CC2)cc1 [Compound 860, N-(4-((2-Fluoro-4-(4-(4-hydroxypiperidin-1-yl)benzamido)phenyl)amino)phenyl)-1H-pyrrole-3-carboxamide] | 17
N#Cc1ccc(-n2ncc3cc(NC(=O)c4ccc(N5CCC(O)CC5)cc4)ccc32)cc1 [Compound 404, N-(1-(4-Cyanophenyl)-1H-indazol-5-yl)-4-(4-hydroxypiperidino)benzamide] | 14
CN(C)c1ccc(C(=O)Nc2ccc(-n3ccc4cc(NC(=O)c5ccc(N(C)C)cc5)ccc43)cc2)cc1 [Compound 370, N-(1-(4-(4-Dimethylaminobenzamido)phenyl)-1H-indol-5-yl)-4-dimethylaminobenzamide] | 18
CN(CCO)c1ccc(C(=O)Nc2ccc3[nH]c(-c4ccc(C(=O)NC5CC5)cc4)nc3c2)cc1 [Compound 235, N-cyclopropyl-4-(5-(4-((2-hydroxyethyl)(methyl)amino)benzamido)-1H-benzo[d]imidazol-2-yl)benzamide] | 15
CN(C)c1ccc(-c2nc3cc(-c4ccc5[nH]c(-c6ccc(N(C)C)cc6)nc5c4)ccc3[nH]2)cc1 [Compound 1744, 4,4′-(5,5′-Bibenzimidazole-2,2′-diyl)bis(N,N-dimethylaniline)] | 11
Nc1ccc(C(=O)Nc2ccc(-c3nc4c(Cl)c(NC(=O)c5ccc(N)cc5)ccc4[nH]3)cc2)cc1 [Compound 1715, 4-Amino-N-(4-(5-(4-aminobenzamido)-4-chloro-1H-benzimidazol-2-yl)phenyl)benzamide] | 10
CN(C)c1ccc(C(=O)Nc2ccc3[nH]c(-c4ccc5nonc5c4)nc3c2)cc1 [Compound 186, N-(2-(benzo[c][1,2,5]oxadiazol-5-yl)-1H-benzo[d]imidazol-5-yl)-4-(dimethylamino)benzamide] | 15
O=C(Nc1ccc2[nH]c(-c3ccc(N4CCOCC4)cc3)nc2c1)c1ccc2nc(-c3ccc(N(CCO)CCO)cc3)[nH]c2c1 [Compound 288, 2-(4-(bis(2-hydroxyethyl)amino)phenyl)-N-(2-(4-morpholinophenyl)-1H-benzo[d]imidazol-5-yl)-1H-benzo[d]imidazole-6-carboxamide] | 17
CC(=O)Nc1ccc(C(=O)c2ccc(NC(=O)c3ccc4c(ccn4C)c3)cc2)cc1 [Compound 349] | 11
CN1CCN(c2ccc(-c3nc4cc(NC(=O)c5ccc(N6CCOCC6)cc5)ccc4[nH]3)cc2)CC1 [Compound 423, N-(2-(4-(4-Methylpiperazino)phenyl)-1H-benzimidazol-5-yl)-4-morpholinobenzamide] | 15
O=C(Nc1ccc2[nH]c(-c3ccc(N4CCOCC4)cc3)nc2c1)c1ccc2nc(-c3ccc(OCCO)cc3)[nH]c2c1 [Compound 299, 2-(4-(2-hydroxyethoxy)phenyl)-N-(2-(4-morpholinophenyl)-1H-benzo[d]imidazol-5-yl)-1H-benzo[d]imidazole-6-carboxamide] | 15

Compound | Activity (%)
O=C(Nc1ccc(Nc2ccc(NC(=O)c3ccc(N4CCC(O)CC4)cc3)cc2)cc1)c1ccc(N2CCC(O)CC2)cc1 [Compound 364, N,N′-(4,4′-Azanediylbis(4,1-phenylene))bis(4-(4-hydroxypiperidino)benzamide)] | 16
CCOC(=O)Cn1c(Cl)ccc1C(=O)Nc1ccc(Nc2ccc(NC(=O)c3ccc(N4CCC(O)CC4)cc3)cc2)cc1 [Compound 830, Ethyl 2-(2-chloro-5-((4-((4-(4-(4-hydroxypiperidin-1-yl)benzamido)phenyl)amino)phenyl)carbamoyl)-1H-pyrrol-1-yl)acetate] | 15
CCNc1ccc(C(=O)c2ccc(NC(=O)c3ccc(N4CCOCC4)cc3)cc2)cc1 [Compound 484, N-(4-(4-Ethylaminobenzoyl)phenyl)-4-morpholinobenzamide] | 16
CN(C)c1ccc(C(=O)Nc2ccc3[nH]c(-c4ccc5c(ccn5C)c4)nc3c2)cc1 [Compound 1734, N-(2-(1-Methyl-1H-indol-5-yl)benzimidazol-5-yl)-4-dimethylaminobenzamide] | 20
CN(C)c1ccc(C(=O)Nc2ccc(C(O)c3ccc(NC(=O)c4ccc(N(C)C)cc4)cc3)cc2)cc1 [Compound 305, N,N′-((hydroxymethylene)bis(4,1-phenylene))bis(4-(dimethylamino)benzamide)] | 18
CN(C)c1ccc(C(=O)Nc2ccc3c(cnn3-c3ccc(NC(=O)c4ccccc4)cc3)c2)cc1 [Compound 375, N-(1-(4-Benzamidophenyl)-1H-indazol-5-yl)-4-dimethylaminobenzamide] | 11
O=C(Nc1ccc2nn(-c3ccc([N+](=O)[O-])cc3)cc2c1)c1ccc(N2CCOCC2)cc1 [Compound 540, 4-Morpholino-N-(2-(4-nitrophenyl)-2H-indazol-5-yl)benzamide] | 17
COc1cccc(C(=O)Nc2ccc3[nH]c(-c4ccccc4)nc3c2)c1 [Compound 1724, 3-Methoxy-N-(2-phenyl-1H-benzimidazol-5-yl)benzamide] | 13
O=C(Nc1ccccc1)c1ccc(-c2nc3cc(NC(=O)c4ccc(N5CCCCC5)cc4)ccc3[nH]2)cc1 [Compound 215, N-phenyl-4-(5-(4-(piperidin-1-yl)benzamido)-1H-benzo[d]imidazol-2-yl)benzamide] | 16
CC(=O)Nc1ccc2[nH]c(-c3ccc(C(=O)Nc4ccc(N5CCOCC5)cc4)cc3)nc2c1 [Compound 454, 4-(5-Acetamino-1H-benzimidazol-2-yl)-N-(4-morpholinophenyl)benzamide] | 16
O=C(O)CNC(=O)Cn1ccc2cc(NC(=O)c3ccc(-n4ccc5cc(NC(=O)c6ccc(N7CCC(O)CC7)cc6)ccc54)cc3)ccc21 [Compound 975] | 17
O=C(C1CC1)N1CCN(c2ccc(-c3nc4ccc(-c5ccc(O)cc5)cc4[nH]3)cc2)CC1 [Compound 680, Cyclopropyl(4-(4-(6-(4-hydroxyphenyl)-1H-benzo[d]imidazol-2-yl)phenyl)piperazin-1-yl)methanone] | 10
O=C(Nc1ccc2[nH]c(-c3ccc(-c4ccccn4)cc3)nc2c1)c1ccccc1 [Compound 479, N-(2-(4-(Pyridin-2-yl)phenyl)-1H-benzimidazol-5-yl)benzamide] | 15
CN1CCN(C(=O)Nc2ccc(-n3ncc4cc(NC(=O)c5ccc(N6CCOCC6)cc5)ccc43)cc2)CC1 [Compound 550, 4-Methyl-N-(4-(5-(4-morpholinobenzamido)-1H-indazol-1-yl)phenyl)piperazine-1-carboxamide] | 9
COc1ccc(/C=C/c2nc3cc(-c4ccc5nc(/C=C/c6ccc(OC)cc6)[nH]c5c4)ccc3[nH]2)cc1 [Compound 262, 2,2′-bis((E)-4-methoxystyryl)-1H,3′H-5,5′-bibenzo[d]imidazole] | 20
N#CCNC(=O)c1ccc(-n2ncc3cc(NC(=O)c4ccc(N5CCC(O)CC5)cc4)ccc32)cc1 [Compound 1045, N-(Cyanomethyl)-4-(5-(4-(4-hydroxypiperidin-1-yl)benzamido)-1H-indazol-1-yl)benzamide] | 15
O=C(Nc1ccc(N2CCOCC2)cc1)c1ccc(-c2nc3ccccc3[nH]2)cc1 [Compound 458, 4-(1H-Benzimidazol-2-yl)-N-(4-morpholinophenyl)benzamide] | 10
O=C(Nc1ccc(N2CCNCC2)cc1)c1ccc(-c2nc3cc(NC(=O)c4ccc(N5CCNCC5)cc4)ccc3[nH]2)cc1 [Compound 251, 4-(piperazin-1-yl)-N-(2-(4-((4-(piperazin-1-yl)phenyl)carbamoyl)phenyl)-1H-benzo[d]imidazol-5-yl)benzamide] | 14
